Test results reported in patent US20260199426A1, “CYCLIC LIPOPEPTIDE ANTIBIOTIC COMPOUNDS FOR USE IN THE TREATMENT OF PROTEIN AGGREGATION DISEASE” (DEUTSCHES ZENTRUM FÜR NEURODEGENERATIVE ERKRANKUNGEN E. V., priority 2022, published 2026).
*1 amine or outer side, *2 acyl side, *3 side chain or, on linkers, in order; H or OH if unused. Where a SMILES comes first, the peptide text is derived from it. Bridges are numbered along the chain shown (N, C = ends). [ ]: non-standard residue; d: D form. The star is where a group is joined. ξ: configuration not given here. X2 = O=C(C(N[*:1])c1ccc(OC2OC(CO)C(O)C(O)C2OC2OC(CO)C(O)C(O)C2O)cc1)[*:2]; Undeca(2Z,4E)dienoyl(10-Me) = CC(C)CCCC/C=C/C=C\C(=O)*; Octa(2Z,4E)dienoyl(7-Me) = CC(C)C/C=C/C=C\C(=O)*; X5 = O=C(C(N[*:1])c1cc(Cl)c(O)c(Cl)c1)[*:2]; ξPhg(3-Cl-4-OH) = NC(C(=O)O)c1ccc(O)c(Cl)c1; X1 = NC(=O)C(O[*:3])C(N[*:1])C(=O)[*:2]; X4 = N=C1NCC(CC(N[*:1])C(=O)[*:2])N1; Hpg = N[CH](C(=O)O)c1ccc(O)cc1; X3 = CCC(C)CCCC/C=C/C=C\C(=O)*; Cit = NC(=O)NCCC[CH](N)C(=O)O; Orn = NCCC[CH](N)C(=O)O; X6 = Cc1ccccc1CC(=O)*

What was measured:
[1] = molecular target: N-terminally acetylated alpha-synuclein (Asyn) (Homo sapiens, UniProt P37840); assay: Seeded α-synuclein aggregation assay (ThT fluorescence, TEM); assay type: biochemical; settings: for in vitro aggregation of alpha-synuclein (ThT fluorescence): 3-fold excess of compound, 25 μM Asyn monomers, 1% (v/v) fibril seeds, 37° C.; for Asyn fibril morphology (TEM) / Asyn oligomer formation (TEM): compound/Asyn mixtures
Experimental: (§1) (A, B) Thioflavin-T (ThT) fluorescence curves of N-terminally acetylated alpha-synuclein (Asyn) in the absence (cross) and presence of a 3-fold excess (white circles) of compound. […] Quantitative analysis of Asyn aggregation kinetics was performed by nonlinear regression with sigmoidal fitting to determine the midpoint value (Tm) of the fluorescence curve as well as the fluorescence span. Unpaired two-tailed t-test was performed to test the null hypothesis (p≤0.0332(*), p≤0.002(**), p≤0.0002 (***), p≤0.0001 (****)). […] (C) TEM imaging analysis of the compound/Asyn mixtures. Scale bars correspond to 200 nm.
as §1, with “ThT” for “Thioflavin-T (ThT)”, “circles or triangles)” for “circles)”
(A) ThT fluorescence curves of N-terminally acetylated alpha-synuclein (Asyn) in the absence (cross) and presence of a 3-fold excess (white circles) of compound. […] Quantitative analysis of Asyn aggregation kinetics was performed by nonlinear regression with sigmoidal fitting to determine the midpoint value (Tm) of the fluorescence curve as well as the fluorescence span.
Asyn protein stock solutions were prepared in 50 mM HEPES at pH 7.4 with 100 mM NaCl. Stocks of compounds were prepared in the same buffer (500 μM) or as 10 mM compound in DMSO. […] The microplate was likewise subjected to the incubation and fluorescence measurement program used in in vitro assay 1. After about 2-4 days of incubation, ThT fluorescence emission reached the maximal value and the Asyn fibril-containing mixture was collected as “fibril seed” mixture for subsequent Asyn aggregation experiments.

[2] = tested on: Tau aggregation in HEK biosensor cells (TauRD^LM-GFP); settings: induced by cell lysate containing Tau aggregates; 0.25 μM to 40 μM, 22 h, lipofectamine
[3] = molecular target: T1, amylin (human islet amyloid polypeptide or hIAPP) (Homo sapiens, UniProt P10997); assay: Amylin aggregation assay (ThT); assay type: biochemical; settings: 5 μM hIAPP monomers, various doses, 37° C.
T1 construct: 5 μM amylin (human islet amyloid polypeptide or hIAPP) monomers
T1 sequence (P10997 34-70 limits assumed): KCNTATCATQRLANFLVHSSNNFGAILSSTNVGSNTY

[4] = molecular target: bovine serum albumin (BSA) (Bos taurus, UniProt P02769); settings: Shivani A et al. 2020; cited from earlier work
bovine serum albumin (BSA), sequence (P02769 25-607): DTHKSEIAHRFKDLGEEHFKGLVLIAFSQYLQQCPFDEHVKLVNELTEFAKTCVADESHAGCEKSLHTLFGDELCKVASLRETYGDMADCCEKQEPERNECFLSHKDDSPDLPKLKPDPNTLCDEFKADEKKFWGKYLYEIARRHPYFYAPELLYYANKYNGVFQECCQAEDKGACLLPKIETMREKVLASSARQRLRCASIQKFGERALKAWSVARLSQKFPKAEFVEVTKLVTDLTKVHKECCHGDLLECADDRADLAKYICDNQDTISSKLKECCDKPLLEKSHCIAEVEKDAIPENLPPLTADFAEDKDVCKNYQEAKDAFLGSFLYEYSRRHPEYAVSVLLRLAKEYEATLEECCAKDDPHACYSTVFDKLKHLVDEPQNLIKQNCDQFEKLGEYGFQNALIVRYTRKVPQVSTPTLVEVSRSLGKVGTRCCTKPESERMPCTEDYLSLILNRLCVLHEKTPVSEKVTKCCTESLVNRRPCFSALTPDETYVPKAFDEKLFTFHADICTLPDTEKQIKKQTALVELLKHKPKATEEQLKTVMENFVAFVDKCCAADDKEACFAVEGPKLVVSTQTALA

Compound | in vitro aggregation of alpha-synuclein (ThT fluorescence) [1] | Asyn fibril morphology (TEM) [1] | inhibition of seeded Tau aggregation [2] | Asyn oligomer formation (TEM) [1] | in vitro aggregation of amylin (final ThT fluorescence, t=50 h) [3] | aggregation of bovine serum albumin (BSA) [4]
CC(C)CCCC/C=C/C=C\C(=O)NC(CC(=O)O)C(=O)NC1C(=O)NC(c2ccc(O)cc2)C(=O)NC(CCCN)C(=O)NC(C(C)O)C(=O)NC(c2ccc(O)cc2)C(=O)NC(c2ccc(O)cc2)C(=O)NC(C(C)O)C(=O)NC(CCCNC(N)=O)C(=O)NC(CC2CNC(=N)N2)C(=O)NC(c2ccc(O)cc2)C(=O)NC(CO)C(=O)NC(c2cc(Cl)c(O)c(Cl)c2)C(=O)NCC(=O)NC(CC2CNC(=N)N2)C(=O)NC(C)C(=O)NC(c2ccc(O)cc2)C(=O)OC1C (stereo not drawn) [Enduracidin A] ({Undeca(2Z,4E)dienoyl(10-Me)}-DT[Hpg][Orn]T[Hpg][Hpg]T[Cit][X4][Hpg]S[X5]G[X4]A[Hpg]; ester 2-C; configuration not given here) | inhibit the in vitro aggregation | shorter fibrils with a rougher surface | showed inhibition of seeded Tau aggregation |  |  | 
CCC(C)CCCC/C=C/C=C\C(=O)NC(CC(=O)O)C(=O)NC1C(=O)NC(c2ccc(O)cc2)C(=O)NC(CCCN)C(=O)NC(C(C)O)C(=O)NC(c2ccc(O)cc2)C(=O)NC(c2ccc(O)cc2)C(=O)NC(C(C)O)C(=O)NC(CCCNC(N)=O)C(=O)NC(CC2CNC(=N)N2)C(=O)NC(c2ccc(O)cc2)C(=O)NC(CO)C(=O)NC(c2cc(Cl)c(O)c(Cl)c2)C(=O)NCC(=O)NC(CC2CNC(=N)N2)C(=O)NC(C)C(=O)NC(c2ccc(O)cc2)C(=O)OC1C (stereo not drawn) [Enduracidin B] (X3-DT[Hpg][Orn]T[Hpg][Hpg]T[Cit][X4][Hpg]S[X5]G[X4]A[Hpg]; ester 2-C; configuration not given here) | inhibit the in vitro aggregation | shorter fibrils with a rougher surface |  | Asyn oligomer formation also competes with Asyn fibril formation | inhibit the in vitro aggregation of amylin | 
Cc1ccccc1CC(=O)NC(CC(N)=O)C(=O)NC1C(=O)NC(c2ccc(O)cc2)C(=O)NC(CCCN)C(=O)NC(C(C)O)C(=O)NC(c2ccc(O)cc2)C(=O)NC(c2ccc(O)cc2)C(=O)NC(C(C)O)C(=O)NC(Cc2ccccc2)C(=O)NC(CCCN)C(=O)NC(c2ccc(OC3OC(CO)C(O)C(O)C3OC3OC(CO)C(O)C(O)C3O)cc2)C(=O)NC(C(C)O)C(=O)NC(c2ccc(O)cc2)C(=O)NCC(=O)NC(CC(C)C)C(=O)NC(C)C(=O)NC(c2ccc(O)c(Cl)c2)C(=O)OC1C(N)=O (stereo not drawn) [NAI-603, Ramoplanin 2-methyl-phenyl derivative NAI-603] (X6-N[X1][Hpg][Orn]T[Hpg][Hpg]TF[Orn][X2]T[Hpg]GLA[ξPhg(3-Cl-4-OH)]; ester 2-C; configuration not given here) |  |  |  |  | inhibit the in vitro aggregation of amylin | 
CC(C)C/C=C/C=C\C(=O)NC(CC(N)=O)C(=O)NC1C(=O)NC(c2ccc(O)cc2)C(=O)NC(CCCN)C(=O)NC(C(C)O)C(=O)NC(c2ccc(O)cc2)C(=O)NC(c2ccc(O)cc2)C(=O)NC(C(C)O)C(=O)NC(Cc2ccccc2)C(=O)NC(CCCN)C(=O)NC(c2ccc(O)cc2)C(=O)NC(C(C)O)C(=O)NC(c2ccc(O)cc2)C(=O)NCC(=O)NC(CC(C)C)C(=O)NC(C)C(=O)NC(c2ccc(O)c(Cl)c2)C(=O)OC1C(N)=O (stereo not drawn) [Ramoplanin A2 Aglycon, Ramoplanin aglycon] ({Octa(2Z,4E)dienoyl(7-Me)}-N[X1][Hpg][Orn]T[Hpg][Hpg]TF[Orn][Hpg]T[Hpg]GLA[ξPhg(3-Cl-4-OH)]; ester 2-C; configuration not given here) | inhibit the in vitro aggregation |  |  | favors the formation of Asyn oligomers |  | 
CNC(CC(C)C)C(=O)NC1C(=O)NC(CC(N)=O)C(=O)NC2C(=O)NC3C(=O)NC(C(=O)NC(C(=O)O)c4cc(O)cc(O)c4-c4cc3ccc4O)C(O)c3ccc(c(Cl)c3)Oc3cc2cc(c3OC2OC(CO)C(O)C(O)C2OC2CC(C)(N)C(O)C(C)O2)Oc2ccc(cc2Cl)C1O (stereo not drawn) [Vancomycin, reference compound] |  |  | showed inhibition of seeded Tau aggregation |  |  | 
Teicoplanin [reference compound] | inhibits the in vitro aggregation |  | showed inhibition of seeded Tau aggregation | Asyn oligomer formation competes with Asyn fibril formation |  | inhibition of the aggregation
